Results taken from ChEMBL document CHEMBL1949642 (Bioorg Med Chem Lett, 2012).
In brackets after ≈: the same amount, converted by molar mass. Activity calls are given as the source filed them. The calls are words filed in the database; no cut-off is given here.

Assays:
[1] = Intrinsic clearance in human liver microsomes; details: liver microsomes
[2] = target: T1, C-C chemokine receptor type 5 (Homo sapiens, UniProt P51681); assay: Antagonist activity at CCR5 in human whole blood assessed as inhibition of MIP-1beta-induced receptor internalization; assay type: functional, tissue-based
Target sequence in this assay (P51681 whole entry, looked up): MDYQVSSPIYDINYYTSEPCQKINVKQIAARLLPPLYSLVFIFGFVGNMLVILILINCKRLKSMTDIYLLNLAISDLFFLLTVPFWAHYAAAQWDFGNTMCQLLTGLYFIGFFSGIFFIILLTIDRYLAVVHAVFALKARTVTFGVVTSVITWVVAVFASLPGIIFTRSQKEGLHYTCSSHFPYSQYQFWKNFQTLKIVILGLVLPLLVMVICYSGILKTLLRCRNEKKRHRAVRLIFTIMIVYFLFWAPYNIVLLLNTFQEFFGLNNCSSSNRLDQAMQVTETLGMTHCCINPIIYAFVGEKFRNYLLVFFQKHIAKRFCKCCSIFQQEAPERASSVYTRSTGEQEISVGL

[3] = Lipophilicity, log D of the compound at pH 7.4; details: buffer
[4] = target: T1, C-C chemokine receptor type 5; assay: Displacement of [125I]MIP-1alpha from human recombinant CCR5 expressed in CHO cells; assay type: cell-based
Target sequence in this assay (P51681 whole entry): as the sequence (P51681 whole entry, looked up) above

[5] = target: Voltage-gated inwardly rectifying potassium channel KCNH2 (Homo sapiens, UniProt Q12809); assay: Displacement of 3,7-Bis[2-(4-nitro[3,5-3H]phenyl)ethyl]-3,7-diazabicyclo[3.3.1]nonane from human ERG expressed in HEK cells after 3 hrs
Voltage-gated inwardly rectifying potassium channel KCNH2, sequence (Q12809 whole entry): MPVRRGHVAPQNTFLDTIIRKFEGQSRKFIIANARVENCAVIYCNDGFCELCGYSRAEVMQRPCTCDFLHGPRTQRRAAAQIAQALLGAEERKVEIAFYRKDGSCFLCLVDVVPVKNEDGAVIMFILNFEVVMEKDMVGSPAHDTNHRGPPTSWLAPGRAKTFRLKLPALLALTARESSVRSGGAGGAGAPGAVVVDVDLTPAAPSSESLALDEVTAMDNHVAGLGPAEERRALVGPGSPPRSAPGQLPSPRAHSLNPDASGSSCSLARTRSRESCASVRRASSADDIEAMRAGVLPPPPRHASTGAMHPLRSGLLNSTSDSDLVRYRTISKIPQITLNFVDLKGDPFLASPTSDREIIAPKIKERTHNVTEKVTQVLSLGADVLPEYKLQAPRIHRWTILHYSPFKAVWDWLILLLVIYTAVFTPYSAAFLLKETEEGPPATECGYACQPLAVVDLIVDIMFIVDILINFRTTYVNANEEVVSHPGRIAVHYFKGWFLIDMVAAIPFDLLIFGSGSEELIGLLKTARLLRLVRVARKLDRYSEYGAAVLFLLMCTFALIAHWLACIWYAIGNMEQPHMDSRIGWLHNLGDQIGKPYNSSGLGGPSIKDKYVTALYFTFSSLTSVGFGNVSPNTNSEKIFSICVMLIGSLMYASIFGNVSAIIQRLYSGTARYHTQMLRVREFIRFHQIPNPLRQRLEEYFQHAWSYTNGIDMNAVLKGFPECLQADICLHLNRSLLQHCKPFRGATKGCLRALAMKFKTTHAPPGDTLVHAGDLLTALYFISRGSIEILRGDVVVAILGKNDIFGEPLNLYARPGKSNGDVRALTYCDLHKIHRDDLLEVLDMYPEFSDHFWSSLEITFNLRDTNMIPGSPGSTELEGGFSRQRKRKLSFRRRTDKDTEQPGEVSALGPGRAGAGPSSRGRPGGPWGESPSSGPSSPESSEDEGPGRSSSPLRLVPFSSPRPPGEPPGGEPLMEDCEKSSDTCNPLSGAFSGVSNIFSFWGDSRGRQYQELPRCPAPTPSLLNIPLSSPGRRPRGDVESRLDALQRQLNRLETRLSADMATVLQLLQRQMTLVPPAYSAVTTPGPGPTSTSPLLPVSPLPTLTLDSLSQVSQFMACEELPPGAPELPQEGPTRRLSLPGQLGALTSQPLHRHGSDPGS

[6] = Clearance in rat at 1 to 2 mg/kg, iv; assay type: ADME, organism-based; parameters: dose 1-2 mg/kg, route intravenous; details: in vivo
[7] = Volume of distribution at steady state in rat at 1 to 2 mg/kg, iv; assay type: ADME, organism-based; parameters: dose 1-2 mg/kg, route intravenous; details: in vivo, read-out: Vdss
[8] = Half life in rat at 1 to 2 mg/kg, iv; assay type: ADME, organism-based; parameters: dose 1-2 mg/kg, route intravenous; details: in vivo
[9] = Oral bioavailability in rat at 2 to 5 mg/kg; assay type: ADME, organism-based; details: in vivo
[10] = Clearance in male dog at 1 to 2 mg/kg, iv; assay type: ADME, organism-based, Canis lupus familiaris; parameters: dose 1-2 mg/kg, route intravenous; details: in vivo
[11] = Volume of distribution at steady state in male dog at 1 to 2 mg/kg, iv; assay type: ADME, organism-based, Canis lupus familiaris; parameters: dose 1-2 mg/kg, route intravenous; details: in vivo, read-out: Vdss
[12] = Half life in male dog at 1 to 2 mg/kg, iv; assay type: ADME, organism-based, Canis lupus familiaris; parameters: dose 1-2 mg/kg, route intravenous; details: in vivo
[13] = Oral bioavailability in male dog at 2 to 5 mg/kg; assay type: ADME, organism-based, Canis lupus familiaris; details: in vivo
[14] = Clearance in female dog at 1 to 2 mg/kg, iv; assay type: ADME, organism-based, Canis lupus familiaris; parameters: dose 1-2 mg/kg, route intravenous; details: in vivo
[15] = Volume of distribution at steady state in female dog at 1 to 2 mg/kg, iv; assay type: ADME, organism-based, Canis lupus familiaris; parameters: dose 1-2 mg/kg, route intravenous; details: in vivo, read-out: Vdss
[16] = Half life in female dog at 1 to 2 mg/kg, iv; assay type: ADME, organism-based, Canis lupus familiaris; parameters: dose 1-2 mg/kg, route intravenous; details: in vivo
[17] = Oral bioavailability in female dog at 2 to 5 mg/kg; assay type: ADME, organism-based, Canis lupus familiaris; details: in vivo
[18] = Dissociation constant, pKa of the compound; assay type: physicochemical
[19] = Aqueous solubility of the compound at pH 7.4; assay type: physicochemical; details: buffer
Cytochrome P450 1A1 = target: T2, Cytochrome P450 1A1 (Homo sapiens, UniProt P04798); assay: Inhibition of CYP1A1; assay type: ADME
T2 sequence (P04798 whole entry): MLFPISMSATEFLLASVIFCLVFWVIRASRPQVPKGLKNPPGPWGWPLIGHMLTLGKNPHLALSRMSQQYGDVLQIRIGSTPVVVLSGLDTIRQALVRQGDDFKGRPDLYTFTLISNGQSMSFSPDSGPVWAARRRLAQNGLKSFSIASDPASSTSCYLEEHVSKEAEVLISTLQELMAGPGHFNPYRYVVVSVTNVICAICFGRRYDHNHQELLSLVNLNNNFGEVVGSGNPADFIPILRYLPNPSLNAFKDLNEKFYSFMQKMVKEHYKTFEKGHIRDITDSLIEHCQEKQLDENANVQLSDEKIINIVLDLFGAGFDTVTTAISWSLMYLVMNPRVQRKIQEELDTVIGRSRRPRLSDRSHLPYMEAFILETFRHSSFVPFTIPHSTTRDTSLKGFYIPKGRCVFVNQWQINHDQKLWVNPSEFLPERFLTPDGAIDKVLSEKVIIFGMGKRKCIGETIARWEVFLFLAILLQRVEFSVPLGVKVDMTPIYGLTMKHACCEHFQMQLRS

Cytochrome P450 2C9 = Cytochrome P450 2C9 (Homo sapiens, UniProt P11712); assay: Inhibition of CYP2C9; assay type: ADME
Cytochrome P450 2C9, sequence (P11712 whole entry): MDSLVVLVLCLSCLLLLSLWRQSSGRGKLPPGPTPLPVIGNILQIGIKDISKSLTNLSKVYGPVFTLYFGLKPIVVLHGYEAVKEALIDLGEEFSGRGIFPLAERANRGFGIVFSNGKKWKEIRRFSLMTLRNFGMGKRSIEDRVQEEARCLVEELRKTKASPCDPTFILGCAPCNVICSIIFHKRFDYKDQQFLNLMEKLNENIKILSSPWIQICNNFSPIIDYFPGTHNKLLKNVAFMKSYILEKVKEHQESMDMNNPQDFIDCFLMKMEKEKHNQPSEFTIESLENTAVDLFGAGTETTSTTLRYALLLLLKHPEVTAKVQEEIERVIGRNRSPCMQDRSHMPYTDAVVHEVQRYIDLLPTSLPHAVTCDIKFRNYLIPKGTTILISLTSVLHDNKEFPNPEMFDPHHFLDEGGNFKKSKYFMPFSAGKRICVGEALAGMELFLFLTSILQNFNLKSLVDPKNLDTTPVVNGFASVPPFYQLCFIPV

Cytochrome P450 2C19 = Cytochrome P450 2C19 (Homo sapiens, UniProt P33261); assay: Inhibition of CYP2C19; assay type: ADME
Cytochrome P450 2C19, sequence (P33261 whole entry): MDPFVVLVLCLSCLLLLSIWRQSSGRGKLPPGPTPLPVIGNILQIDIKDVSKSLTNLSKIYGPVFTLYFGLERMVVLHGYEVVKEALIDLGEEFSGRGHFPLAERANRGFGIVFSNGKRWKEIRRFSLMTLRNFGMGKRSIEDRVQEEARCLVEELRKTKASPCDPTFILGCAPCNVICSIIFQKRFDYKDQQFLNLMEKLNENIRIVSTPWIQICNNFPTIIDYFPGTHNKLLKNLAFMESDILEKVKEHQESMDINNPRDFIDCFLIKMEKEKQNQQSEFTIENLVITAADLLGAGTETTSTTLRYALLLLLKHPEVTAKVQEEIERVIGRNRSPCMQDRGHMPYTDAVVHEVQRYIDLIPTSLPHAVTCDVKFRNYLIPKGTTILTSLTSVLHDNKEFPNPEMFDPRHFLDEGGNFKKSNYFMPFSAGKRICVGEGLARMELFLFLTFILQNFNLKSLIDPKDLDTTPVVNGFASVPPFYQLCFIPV

Cytochrome P450 2D6 = Cytochrome P450 2D6 (Homo sapiens, UniProt P10635); assay: Inhibition of CYP2D6; assay type: ADME
Cytochrome P450 2D6, sequence (P10635 whole entry): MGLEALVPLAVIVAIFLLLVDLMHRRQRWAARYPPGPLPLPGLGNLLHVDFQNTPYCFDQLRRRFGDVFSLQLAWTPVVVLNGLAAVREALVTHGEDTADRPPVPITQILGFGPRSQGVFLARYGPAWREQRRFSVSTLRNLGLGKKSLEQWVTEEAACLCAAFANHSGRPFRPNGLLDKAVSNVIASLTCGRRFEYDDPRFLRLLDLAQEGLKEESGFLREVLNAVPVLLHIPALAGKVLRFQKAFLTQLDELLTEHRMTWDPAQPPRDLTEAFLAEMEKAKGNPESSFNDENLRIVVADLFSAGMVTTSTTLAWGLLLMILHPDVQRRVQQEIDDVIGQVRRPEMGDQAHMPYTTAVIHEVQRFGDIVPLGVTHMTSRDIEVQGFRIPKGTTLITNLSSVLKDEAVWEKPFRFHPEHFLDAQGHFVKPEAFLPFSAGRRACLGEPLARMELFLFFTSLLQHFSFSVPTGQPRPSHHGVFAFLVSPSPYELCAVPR

Cytochrome P450 3A4 = Cytochrome P450 3A4 (Homo sapiens, UniProt P08684); assay: Inhibition of CYP3A4; assay type: ADME
Cytochrome P450 3A4, sequence (P08684 whole entry): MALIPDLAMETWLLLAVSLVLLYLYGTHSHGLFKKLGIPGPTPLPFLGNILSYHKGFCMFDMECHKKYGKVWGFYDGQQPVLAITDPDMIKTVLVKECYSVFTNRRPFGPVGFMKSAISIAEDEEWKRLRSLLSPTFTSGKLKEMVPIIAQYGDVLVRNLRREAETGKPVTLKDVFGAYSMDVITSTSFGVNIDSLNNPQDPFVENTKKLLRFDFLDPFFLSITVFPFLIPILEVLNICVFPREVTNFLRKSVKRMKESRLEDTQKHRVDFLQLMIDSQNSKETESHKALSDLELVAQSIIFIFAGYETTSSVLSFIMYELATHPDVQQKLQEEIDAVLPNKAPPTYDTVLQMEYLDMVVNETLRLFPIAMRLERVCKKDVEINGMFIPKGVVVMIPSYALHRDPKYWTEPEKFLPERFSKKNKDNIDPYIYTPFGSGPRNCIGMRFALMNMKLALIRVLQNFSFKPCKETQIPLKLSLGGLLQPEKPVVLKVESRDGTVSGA

[20] = Apparent permeability from apical to basal side of human Caco2 cells at 10 uM; assay type: ADME, cell-based; details: Caco-2
[21] = Apparent permeability from basal to apical side of human Caco2 cells at 10 uM; assay type: ADME, cell-based; details: Caco-2
[22] = Apparent permeability from apical to basal side of human Caco2 cells at 100 uM; assay type: ADME, cell-based; details: Caco-2
[23] = Apparent permeability from basal to apical side of human Caco2 cells at 100 uM; assay type: ADME, cell-based; details: Caco-2
[24] = Fraction unbound in human plasma; assay type: ADME, cell-free
Homo sapiens = species: Homo sapiens; assay: Antiarthritis activity in rheumatoid arthritis patient at 150 mg; assay type: functional, organism-based
[25] = Plasma protein binding in human; assay type: ADME, cell-free; details: read-out: PPB (converted)

CCN(C(=O)Cc1ccc(S(C)(=O)=O)cc1)C1CCN(CC[C@H](c2ccc(S(C)(=O)=O)cc2)c2cc(F)cc(F)c2)CC1
microsomal CLint [1]: 8 µL/min/mg | A2 [2]: 1.1 nM

CCN(C(=O)Cc1ccc(S(C)(=O)=O)cc1)C1CCN(CCC(c2ccccc2)N2CCN(C)CC2)CC1 (racemic)
logD [3]: 0.9

CCN(C(=O)Cc1ccc(S(C)(=O)=O)cc1)C1CCN(CCC(c2ccccc2)N2CCN(c3ccccc3)CC2)CC1 (racemic)
IC50 [4]: 5 nM | microsomal CLint [1]: 26 µL/min/mg | IC50 [5]: 13 µM | logD [3]: 2.7

CCN(C(=O)Cc1ccc(S(C)(=O)=O)cc1)C1CCN(CCC(c2ccccc2)N2CCN(c3cccc(F)c3)CC2)CC1 (racemic)
IC50 [4]: 3.1 nM | microsomal CLint [1]: 22 µL/min/mg | IC50 [5]: 3.2 µM | logD [3]: 3.2

CCN(C(=O)Cc1ccc(S(C)(=O)=O)cc1)C1CCN(CCC(c2ccccc2)N2CCN(C(C)=O)CC2)CC1 (racemic)
IC50 [4]: 229 nM | logD [3]: 0.9

CCN(C(=O)Cc1ccc(S(C)(=O)=O)cc1)C1CCN(CCC(c2ccccc2)N2CCN(S(C)(=O)=O)CC2)CC1 (racemic)
IC50 [4]: 39 nM | microsomal CLint [1]: < 3 µL/min/mg | logD [3]: 0.8

CCN(C(=O)Cc1ccc(S(C)(=O)=O)cc1)C1CCN(CCC(c2ccccc2)N2CCN(S(=O)(=O)CC)CC2)CC1 (racemic)
IC50 [4]: 15 nM | microsomal CLint [1]: 52 µL/min/mg | logD [3]: 1

CCN(C(=O)Cc1ccc(S(C)(=O)=O)cc1)C1CCN(CCC(c2ccccc2)N2CCC(C)CC2)CC1 (racemic)
IC50 [4]: 339 nM | logD [3]: 2

CCN(C(=O)Cc1ccc(S(C)(=O)=O)cc1)C1CCN(CCC(c2ccccc2)N2CCC(Cc3ccccc3)CC2)CC1 (racemic)
IC50 [4]: 162 nM | logD [3]: 3.7

CCN(C(=O)Cc1ccc(S(C)(=O)=O)cc1)C1CCN(CCC(c2ccccc2)N2CCC(C(C)=O)CC2)CC1 (racemic)
IC50 [4]: 83 nM | microsomal CLint [1]: 21 µL/min/mg | logD [3]: 0.9

CCN(C(=O)Cc1ccc(S(C)(=O)=O)cc1)C1CCN(CCC(c2ccccc2)C2CCN(C)CC2)CC1 (racemic)
IC50 [4]: 126 nM | logD [3]: 1

CCN(C(=O)Cc1ccc(S(C)(=O)=O)cc1)C1CCN(CCC(c2ccccc2)C2CCN(Cc3ccccc3)CC2)CC1 (racemic)
IC50 [4]: 8.9 nM | microsomal CLint [1]: > 150 µL/min/mg

CCN(C(=O)Cc1ccc(S(C)(=O)=O)cc1)C1CCN(CCC(c2ccccc2)C2CCN(C(C)=O)CC2)CC1 (racemic)
IC50 [4]: 37 nM | logD [3]: 1.4

CCN(C(=O)Cc1ccc(S(C)(=O)=O)cc1)C1CCN(CCC(c2ccccc2)C2CCN(S(=O)(=O)CC)CC2)CC1 (racemic)
IC50 [4]: 2.4 nM | microsomal CLint [1]: 61 µL/min/mg | logD [3]: 1.6

CCN(C(=O)Cc1ccc(S(C)(=O)=O)cc1)C1CCN(CC[C@@H](c2cc(F)cc(F)c2)C2CCN(S(C)(=O)=O)CC2)CC1 [AZD5672]
IC50 [4]: 0.26 nM | microsomal CLint [1]: 18 µL/min/mg | logD [3]: 1.5 | clearance [6]: 38 mL/min/kg | Vd [7]: 5 L/kg | half-life [8]: 126 min | bioavailability [9]: 41% | clearance [10]: 15 mL/min/kg | Vd [11]: 4.5 L/kg | half-life [12]: 234 min | bioavailability [13]: 46% | clearance [14]: 22 mL/min/kg | Vd [15]: 5.8 L/kg | half-life [16]: 228 min | bioavailability [17]: 51% | A2 [2]: 0.76 nM | pKa [18]: 8.4 | solubility [19]: 2700 µM (≈ 1730 µg/mL) | IC50 (Cytochrome P450 1A1): > 50 µM | IC50 (Cytochrome P450 2C9): > 50 µM | IC50 (Cytochrome P450 2C19): > 50 µM | IC50 (Cytochrome P450 2D6): 23 µM | IC50 (Cytochrome P450 3A4): 9 µM | Papp A→B at 10 µM [20]: 0.7 ×10⁻⁶ cm/s | Papp B→A at 10 µM [21]: 9.2 ×10⁻⁶ cm/s | Papp A→B at 100 µM [22]: 1.4 ×10⁻⁶ cm/s | Papp B→A at 100 µM [23]: 11 ×10⁻⁶ cm/s | fraction unbound [24]: 0.08 | Activity (Homo sapiens): inactive | fraction unbound [25]: 0.08
